From patent publication US20130237582A1, “PHARMACEUTICAL COMBINATION OF PACLITAXEL AND A CDK INHIBITOR” (Piramal Enterprises Limited, priority 2010, published 2013)

Assays:
MCF-7 = assay: Multicellular tumor spheroid (MCTS, 3D) formation; assay type: cell-based, human; settings: MCF-7 MCTS
Protocol: The assay was carried out according to the method disclosed in Methods in Molecular Medicine, 2007, 140, 141-151.
The multicellular tumor spheroid (MCTS) model is one of the best-described 3D in vitro tumor model systems, which depicts many of the characteristics of tumor tissue and allows reproducible experiments, offering an excellent in vitro screening system. MCTS were propagated using the hanging drop method. Briefly, the cell monolayer was detached using trypsin-EDTA. Cell count was adjusted and 20 μL hanging droplets containing 1,000 cells/drop, were made in bacterial grade petridishes. These hanging drops were incubated for 24 h at 37° C. in a humidified atmosphere of 5% CO2. The MCTS thus generated were cultured in the presence or absence of varying concentrations (0.3 μM to 30 μM) of Compound A for 72 h.

Rb = assay: Western blot of cell cycle proteins in MCF-7; assay type: cell-based, human; settings: 1.5 μM, 3, 6, 9, 12 and 24 h
Protocol: (§1) MCF-7 cells were seeded in RPMI 1460 medium with 10% FCS in […] tissue culture flask and incubated for 24 h. These cells were treated with Compound A at 1.5 μM. At various time points viz. 3 h, 6 h, 9 h, 12 h and 24 h the cells were harvested (trypsinised) and lysed using lysis buffer. Protein content was estimated by Bradford method (Anal. Biochem., 1976, 72, 248-254). Lysate was applied to Sodium Dodecyl Sulphate-Polyacrylamide Gel Electrophoresis (SDS-PAGE) followed by Western blotting. Western blotting was done using specific antibodies to various cell cycle proteins viz. cyclin D1, CDK4, Rb and pRbSer780.

cyclin D1 [1] = assay: Western blot of cell cycle proteins in MCF-7; assay type: cell-based, human; settings: 1.5 μM, 3, 6, 9, 12 and 24 h
Protocol: as §1

pRbSer780 = assay: Western blot of cell cycle proteins in MCF-7; assay type: cell-based, human; settings: 1.5 μM, 3, 6, 9, 12 and 24 h
Protocol: as §1

[2] = target: T1, CDK4-D1 (Cyclin D1 and CDK4) (Homo sapiens, UniProt P11802); assay: CDK4 kinase activity after immunoprecipitation from MCF-7 cells; assay type: cell-based; settings: synchronized MCF-7; 1.5 μM; 3, 6, 9 and 12 h
T1 construct: endogenous in cells; host or cells: MCF-7 (serum-starved, synchronized)
Protocol: For immunoprecipitation assay, the MCF-7 cells were synchronized by serum starvation. These cells were treated with Compound A at 1.5 μM at various time points viz. 3 h, 6 h, 9 h and 12 h. Cells were harvested (trypsinised) and lysed using lysis buffer, and protein content was estimated. CDK4-D1 (Cyclin D1 and CDK4) was purified from the lysate by immunoprecipitation using specific antibody to CDK4. Immune complex was further purified using Protein A sepharose beads (Sigma Aldrich, USA). Immune complex was used to determine CDK4 activity using pRb as a substrate and ^32P labelled ATP (BRIT, India). Reaction mixed was applied to SDS-PAGE followed by transfer and autoradiography.

CDK4 = assay: Western blot of cell cycle proteins in MDA-MB-231; assay type: cell-based, human; settings: 1.5 μM and 5 μM, 24 h
Protocol: (§2) Correlation of PARP activity and cell cycle proteins cyclin D1, total Rb and pRb 780 were studied in two TNBC cell lines viz. MDA-MB-468 and MDA-MB-231. MDA-MB-231 and MDA-MB-468 cells were seeded in RPMI 1460 medium with 10% FCS in […] tissue culture flask and incubated for 24 h. These cells were treated at 1.5 μM and 5 μM Compound A for 24 h. The cells were harvested (trypsinised) and lysed using lysis buffer. Western blotting was carried out (Molecular Cancer […], 2007, 6, 918-925) using specific antibody to PAR, PARP, cyclin D1, CDK4 and pRb Ser 780.

cyclin D1 [3] = assay: Western blot of cell cycle proteins in MDA-MB-231; assay type: cell-based, human; settings: 1.5 μM and 5 μM, 24 h
Protocol: as §2

pRb Ser 780 = assay: Western blot of cell cycle proteins in MDA-MB-231; assay type: cell-based, human; settings: 1.5 μM and 5 μM, 24 h
Protocol: as §2

[4] = test system: MCF-7, BT-549 and MDA-MB-231 cell lines; assay: Wound healing assay (cell migration); assay type: cell-based, human; settings: 1 μM and 3 μM; 24 h
Protocol: The wound-healing assay is simple, inexpensive, and one of the earliest developed methods to study directional cell migration in vitro. This method mimics cell migration during wound healing in vivo.
Protocol: • 1. MCF-7 cells were seeded in RPMI 1460 medium with 10% FCS in […] tissue culture flask and incubated for 24 h. • 2. The cells were trypsinized and seeded at a density of (0.5−2.0)×10^6 per well in a sterile 6 well plate. • 3. The plate was incubated for about 16 h in humidified CO2 incubator (5% CO2) at 37° C. under ambient oxygen levels. […] The required number of cells for a confluent monolayer depends on both the particular cell type and size of dishes. • 4. The cell monolayer in a straight line was scraped evenly to create a “scratch” with a pipette tip. The first image of the scratches was captured before addition of the compound. • 5. Compound A was added at concentrations of 1 μM and 3 μM. • 6. The plates were then kept in the incubator for further incubation. The time frame for incubation was determined empirically for the particular cell type used. • 7. After the incubation, the dish was placed under a phase contrast microscope (Zeiss Axio Observer, Germany), reference point was matched, the photographed regions of the first image were aligned and the second image was captured. For each image distances between one side of the scratch and the other were measured. […]

HUVEC = assay: Endothelial cell tube formation assay; assay type: cell-based, human
Description: The Tube Formation Assay represents a simple but powerful model for studying inhibition and induction of angiogenesis. The assay relies on the endothelial cells' ability to form distinct blood-vessel like tubules in an extracellular matrix (BD Matrigel™ Matrix, USA) where they can subsequently be visualized by microscopy. It enables analysis of angiogenic tubules in a 3 dimensional matrix that better resembles the native physiological environment.
Confluent HUVEC (Human umbilical vein endothelial cells) were cultured with above mentioned endothelial medium to desired confluence. For HUVEC 60-80% confluence is recommended.
Endothelial cell suspensions were prepared by trypsinizing the cell monolayers and resuspending the cells in culture medium with 5-10% serum. (0.5−1)×10^6 cells per 180 μL of cell suspension were added (per well of 24 well plate) to the medium (BD Matrigel Matrix) which, had been thawed at 4° C. This suspension was then added to the plates and kept for incubation. The cells were allowed to adhere for 2-3 h and then Compound A (1 μM), Rotenone (1 μM) (Sigma-Aldrich, USA) and Topotecan (3 μM) (Sigma-Aldrich, USA) (20 μL of 10× stocks) were added to the respective wells. DMSO was used as the control. After 24-48 h of incubation the cells were observed under a phase contrast microscope (Zeiss Axio Observer, Germany) for tube formation and angiogenesis.

T1 sequence (P11802 2-303 limits assumed): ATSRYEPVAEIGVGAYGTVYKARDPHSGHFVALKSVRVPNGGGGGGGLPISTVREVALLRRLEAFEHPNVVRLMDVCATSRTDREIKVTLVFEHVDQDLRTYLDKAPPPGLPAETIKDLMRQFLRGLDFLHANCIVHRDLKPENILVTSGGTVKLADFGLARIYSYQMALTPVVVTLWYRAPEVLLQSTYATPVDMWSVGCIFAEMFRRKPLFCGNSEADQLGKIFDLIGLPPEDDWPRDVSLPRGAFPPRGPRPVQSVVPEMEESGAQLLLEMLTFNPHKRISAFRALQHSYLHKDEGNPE
T1 sequence (P24385 whole entry partner): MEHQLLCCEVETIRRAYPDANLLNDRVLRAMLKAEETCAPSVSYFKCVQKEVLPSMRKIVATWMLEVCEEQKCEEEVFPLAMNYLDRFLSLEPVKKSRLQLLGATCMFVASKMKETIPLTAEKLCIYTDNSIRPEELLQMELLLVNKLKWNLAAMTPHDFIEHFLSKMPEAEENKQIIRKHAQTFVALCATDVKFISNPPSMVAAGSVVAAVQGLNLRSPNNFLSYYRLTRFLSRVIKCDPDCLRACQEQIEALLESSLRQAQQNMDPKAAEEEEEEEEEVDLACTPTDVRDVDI

`CN1CC[C@@H](c2c(O)cc(O)c3c(=O)cc(-c4ccccc4Cl)oc23)[C@@H]1CO.Cl` [Compound A, (+)-trans-2-(2-Chloro-phenyl)-5,7-dihydroxy-8-(2-hydroxymethyl-1-methyl-pyrrolidin-3-yl)-chromen-4-one hydrochloride] was tested, and the “concentration from which spheroid formation was arrested” value (MCF-7; 0.3 μM to 30 μM, 72 h) was no less than 3 µM, the “size of MCTS formed” value (MCF-7; 1 μM) was “smaller as compared to control” and the “total Rb” value (Rb) was “no significant change in total Rb except at 24 h”. The “Cyclin D1 expression” value (cyclin D1 [1]) was “decrease from 6 h onwards and significantly at 12 h”, the pRb expression (pRbSer780) was “decrease from 6 h onwards and significantly at 12 h” and the CDK4 kinase activity [2] was “Decrease in CDK4 kinase activity in cell-based assay was seen as early as 3 h onwards”. For the same compound, the CDK4 level (CDK4) was “dose dependent decrease”, the “cyclin D1 level” value (cyclin D1 [3]) was “dose dependent decrease” and the pRb level (pRb Ser 780) was “dose dependent decrease”. For the same compound, the “cell migration (wound healing)” value [4] was “potent anti migratory effect”, the “tube formation inhibition compared with standards” value (HUVEC; 1 μM vs Rotenone 1 μM and Topotecan 3 μM) was “comparable to Rotenone (standard VEGF inhibitor) and better than Topotecan” and the endothelial tube formation (HUVEC; HUVEC in Matrigel, 1 μM, 24-48 h) was “effectively inhibited endothelial tube formation”.
